The target in assay [1] is T1, NEK6 (Homo sapiens, UniProt Q9HC98).
T1 construct: purchased Carna 05-130
Nature of the assay: Off-chip Mobility Shift Assay (MSA), NEK6. Particulars: CARNA Biosciences Study CBS170097, ATP 75 µM. The assay is classed as biochemical. The protocol:
Therefore, we decided to evaluate the selectivity of compound 8 against a panel of NEK kinases at 10 µM, using the technique of Off-chip Mobility shift assay. This concentration was chosen according to the guidelines proposed by Knight and Shokat, since the probability of off-target effects increases dramatically above 10 µM[36]. Furthermore, ATP concentration was set to approximate the Km,ATP for each kinase, so that the resulting selectivity profile directly reflects the intrinsic affinities of the inhibitor[37]. […] A major consequence of this substitution may be the redistribution of surface charges at the flexible activation loop resulting in an altered electrostatic potential and ability of NEK6 kinase to interact with other molecules.
The inhibitory activity of compounds 8 and 21 on NEK6 was also verified with MSA technique (Off-chip Mobility shift assay) (CARNA Biosciences Study ID: CBS170097, CARNA Biosciences, Kobe). […] PKR Inhibitor was used as positive control. For profiling study against NEK kinases (i.e. NEK1, NEK2, NEK6, NEK7, NEK9) (CARNA Biosciences Study ID: CBS170098), 8 was tested at 10 μM and ATP concentration approximating Km for each kinase. Assay condition for kinases are available on “Kinase profiling book” downloading by www.carnabio.com (https://www.carnabio.com/output/pdf/ProfilingProfilingBook_en.pdf).

The target in assay [2] is T1, NEK6. Description: LANCE-Ultra NEK6 kinase assay. Particulars: 100 µM ATP. The format is biochemical. The protocol:
The twenty-five compounds resulting from virtual screening were firstly tested for the ability to inhibit the enzymatic activity of NEK6 at a single concentration of 30 µM, using LANCE technology. Quercetin, able to inhibit a broad panel of kinase, was used as positive control of inhibition[12],[30]. This initial screening allowed the identification of two compounds determining >70% NEK6 inhibition at 30 µM, i.e. compound 8 (6-hydroxy-4-methyl-2-oxo-5-[(5-phenyl (2-furyl)) methylene] pyridine-3-carbonitrile), and 21 (6-amino-2-phenyl-5,7,9-triazatetracyclo[8.7.0.0^3,^8 0^11,^16]heptadeca-1(10),3(8),6,11,13,15 hexaene-4,17-dione) (Fig. 4). […] The possible binding mode of compound 8 in the ATP-binding site of NEK6 as well as nonbonded interactions across the complex interface are shown in Fig. 6. Compound 8 may use its phenyl ring and furyl ring to form hydrophobic Pi-alkyl interactions with Ala72 (strand β3), Ala125 (hinge region) and Val59 (strand β2) of the ATP binding site (Fig. 6B). […] This is particulary relevant when considering that C–H···O hydrogen bonds play an important role in the ligand-binding process[33]–[35].
Compounds (i.e. 1 to 25) (Molport, Riga, LV-1011, Latvia) were dissolved in DMSO 100% as 10 mM stock and stored at −20 C. Activity of the compounds as NEK6 inhibitors was tested using LANCE NEK6 Ultra Kinase Assays protocol (U-TRF #25 technical note, PerkinElmer, Monza, MB). Compounds were first tested at 30 µM and incubated with 4 nM NEK6 (Carna, Chuo-ku, Kobe, Japan, # 05-130), 50 nM ULight-p70 S6K Peptide (PerkinElmer # TRF0126) and 100 μM ATP (Sigma-Aldrich, Saint Louis, U.S.A, # A2383) at room temperature. Kinase reactions were terminated after 90 minutes by the addition of EDTA and the signal was read with the Enspire plate reader (PerkinElmer) in TR-FRET mode (excitation at 320 nm and emission at 665 nm) after 60 minutes. Inhibition of NEK6 activity was calculated as percentage with respect to the control sample (100% of activity). Quercetin was used as positive control (Molport). […] For each compound the dose inhibiting 50% of NEK6 activity (IC50) was calculated using the GraphPad Prism 5.0 Software (San Diego, CA, USA).
For orientation: TR-FRET usually uses a lanthanide donor and a delayed reading to cut background.

In assay [3] the test system is PEO1 (ovary). Nature of the assay: Cell-based cytotoxicity assay (ATPlite), PEO1. Set-up: species or system human. Particulars: 72 h. The text has this: The following human carcinoma cell lines were used for the study: MDA-MB-231 and MCF-7 (breast cancer; ATCC, Sesto San Giovanni, MI), PEO1 and COV318 (ovarian cancer; ECACC, Salisbury, UK and ATCC), HCT-15 and SW948 (colon cancer; Public Health England, Salisbury, UK and ATCC), NCI-H1975 and NCI-H1299, (lung cancer; ATCC). Cells were routinely tested free of mycoplasma (MycoAlert mycoplasma detection kit, LONZA, Rockland, ME, USA) and validated by STR (Short Tandem Repeat) DNA profiling (BMR Genomics srl, PD). Cells were grown following supplier indication, in a fully humidified atmosphere of 5% CO2/95% air. All the reagents were purchased from Sigma-Aldrich (St. Louis, MO), if not otherwise specified.
In general terms: In ATP-based viability assays light output follows the ATP content of the culture.

Like-named read-outs stand apart in the source and are kept apart here.

The IC50 is the concentration at which inhibition is half-maximal. By inhibition is commonly meant the share of the control response that was lost under treatment. Low readings indicate a response near the control, high ones a response far below the control.

T1 sequence (Q9HC98 whole entry): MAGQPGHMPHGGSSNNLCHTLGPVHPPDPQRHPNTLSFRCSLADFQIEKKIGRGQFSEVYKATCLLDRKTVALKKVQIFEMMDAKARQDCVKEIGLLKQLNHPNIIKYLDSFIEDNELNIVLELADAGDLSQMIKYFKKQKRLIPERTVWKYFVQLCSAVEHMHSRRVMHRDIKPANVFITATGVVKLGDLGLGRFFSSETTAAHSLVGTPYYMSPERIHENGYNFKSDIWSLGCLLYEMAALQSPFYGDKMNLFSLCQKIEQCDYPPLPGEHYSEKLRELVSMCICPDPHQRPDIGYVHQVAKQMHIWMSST

Turning to `Nc1nc2c(c(=O)[nH]1)C(c1ccccc1)C1=C(N2)c2ccccc2C1=O` (centres unmarked) [Compound 21, 6-amino-2-phenyl-5,7,9-triazatetracyclo[8.7.0.0^3,^8 0^11,^16]heptadeca-1(10),3(8),6,11,13,15 hexaene-4,17-dione], the IC50 in assay [1] came to 49.8 µM; in assay [2] (LANCE-Ultra, mean ± SEM of 4 independent experiments), 2600 ± 50 nM. Moreover, the inhibition at 30 µM in assay [2] (single concentration 30 µM, LANCE) is > 70%. Consider `N.N.[Cl][Pt][Cl]` [cisplatin], for which the IC50 in assay [3] (PEO1, cisplatin alone, read-out: Cisplatin IC50 (mean ± SEM)) was found to be 7.9 ± 0.65 µM. Consider `CC(=O)O[C@H]1C(=O)[C@@]2(C)[C@H]([C@H](OC(=O)c3ccccc3)[C@]3(O)C[C@H](OC(=O)[C@H](O)[C@@H](NC(=O)c4ccccc4)c4ccccc4)C(C)=C1C3(C)C)[C@]1(OC(C)=O)CO[C@@H]1C[C@@H]2O` [paclitaxel], for which the IC50 in assay [3] (Homo sapiens, PEO1, paclitaxel alone, read-out: IC50 paclitaxel) turned out to be 0.007 ± 1e-06 µM.

Values taken from PMC6207720, “Identification and antitumor activity of a novel inhibitor of the NIMA-related kinase NEK6” (Scientific Reports, 2018).
